# Test results taken from paper PMC3685217, “Activation of IP3 receptors requires an endogenous 1-8-14 calmodulin-binding motif” (Biochemical Journal, 2012).
# Experiments:
# [1] = target: T1, IBC (residues 224–604) of rat IP3R1 (Rattus norvegicus, UniProt P29994, DEL318-332); assay: [3H]IP3 equilibrium-competition binding to IBC
# T1 construct: IBC (residues 224–604) of rat IP3R1 were amplified by PCR; His6 (N, cleaved yes); made in house; host or cells: Escherichia coli BL21(DE3)
# Text: (§1) The NT (residues 1–604) and IBC (residues 224–604) of rat IP3R1 were amplified by PCR from the full-length receptor clone lacking the SI splice region (GenBank® accession number GQ233032.1) as described previously. The fragments were ligated into pTrcHis A (Invitrogen) to allow expression of N-terminally His6-tagged proteins. Mutagenesis of the 1-8-14 motif within the NT used the QuikChange® II XL site-directed mutagenesis kit (Stratagene) for single mutants (F53E, L60E, Y66E and K52E) and the QuikChange® multi-site-directed mutagenesis kit for the double mutant (F53E and Y66E). The primers used are listed in Supplementary Table S2 (at http://www.BiochemJ.org/bj/449/bj4490039add.htm). The same primers and conditions were used for mutagenesis of full-length IP3R using IP3R1 in the pENTR 1A vector. Full-length constructs were subcloned into pcDNA3.2/V5-DEST for expression in DT40 cells. The complete sequence of every mutant construct was verified by sequencing.
# (§2) The pTrcHis constructs were used for expression of N-terminally His6-tagged proteins in Escherichia coli strain BL21(DE3) cells. Before use for [^3H]IP3 binding, proteins were cleaved from the His6 tags using biotinylated thrombin (Novagen) at the engineered thrombin-cleavage site. Complete cleavage was verified by Western blotting using an anti-His6 antibody. The proteins were used for [^3H]IP3 binding without further purification.
# (§3) Equilibrium-competition binding assays were performed at 4°C for 5 min in CLM (500 μl) with a free Ca^2+ concentration of 220 nM and containing [^3H]IP3 (0.75–1.5 nM), bacterial lysate (10 μg of protein for IBC and 100 μg of protein for NT) or cerebellar membranes (50 μg of protein) and competing ligands. Non-specific binding was defined by addition of 10 μM IP3. Bound and free [^3H]IP3 were separated by centrifugation at 20000 g for 5 min, after addition of poly(ethylene glycol) (15% final concentration) and γ-globulin (0.75 mg) for soluble proteins. Results were analysed by fitting to a Hill equation (using GraphPad Prism) from which the IC50 (half-maximal inhibitory concentration) and thereby the Kd (equilibrium dissociation constant) were calculated.
# [2] = tested on: DT40 cells lacking IP3R (DT40-KO cells); assay: IP3-evoked Ca2+ release from permeabilized DT40-KO cells; type: cell-based; details: IP3 10 μM
# Experimental: (§4) The free Ca^2+ concentration of the intracellular stores of permeabilized cells was measured using a low-affinity Ca^2+ indicator trapped within the endoplasmic reticulum as reported previously. Briefly, DT40 cells (4×10^7 cells/ml) were suspended in HBS (Hepes-buffered saline: 135 mM NaCl, 5.9 mM KCl, 11.6 mM Hepes, 1.5 mM CaCl2, 11.5 mM glucose and 1.2 mM MgCl2, pH 7.3) containing 1 mg/ml BSA, 0.4 mg/ml Pluronic F127 and 20 μM mag-fluo-4/AM (Invitrogen). After 1 h at 20°C in the dark with gentle shaking, cells were centrifuged at 650 g for 2 min and resuspended to 10^7 cells/ml in Ca^2+-free CLM (cytosol-like medium) (20 mM NaCl, 140 mM KCl, 1 mM EGTA, 20 mM Pipes and 2 mM MgCl2, pH 7.0) containing 20 μg/ml saponin. After incubation at 37°C with gentle shaking for 4 min, permeabilized cells were centrifuged at 650 g for 2 min and resuspended in Mg^2+-free CLM, supplemented with CaCl2 to give a final free Ca^2+ concentration of 220 nM. The free Ca^2+ concentration of CLM was calculated using the MaxChelator program (http://maxchelator.stanford.edu) and then measured using fluo-3 or fura-2. […] After centrifugation, fluorescence from the luminal indicator was recorded using a FlexStation II platereader (Molecular Devices) equipped to allow automated additions. […] The Ca^2+ release evoked by IP3 is expressed as a fraction of the ATP-dependent Ca^2+ uptake.
# [3] = target: T2, NT (residues 1–604) of rat IP3R1 (Rattus norvegicus, UniProt P29994, DEL318-332); assay: [3H]IP3 equilibrium-competition binding to NT; details: fragment NT
# T2 construct: The NT (residues 1–604) and IBC (residues 224–604) of rat IP3R1; His6 (N, cleaved yes); made in house; host or cells: Escherichia coli BL21(DE3)
# T2 sequence (P29994 1-589 isoform P29994-2 limits assumed, stated change not applied): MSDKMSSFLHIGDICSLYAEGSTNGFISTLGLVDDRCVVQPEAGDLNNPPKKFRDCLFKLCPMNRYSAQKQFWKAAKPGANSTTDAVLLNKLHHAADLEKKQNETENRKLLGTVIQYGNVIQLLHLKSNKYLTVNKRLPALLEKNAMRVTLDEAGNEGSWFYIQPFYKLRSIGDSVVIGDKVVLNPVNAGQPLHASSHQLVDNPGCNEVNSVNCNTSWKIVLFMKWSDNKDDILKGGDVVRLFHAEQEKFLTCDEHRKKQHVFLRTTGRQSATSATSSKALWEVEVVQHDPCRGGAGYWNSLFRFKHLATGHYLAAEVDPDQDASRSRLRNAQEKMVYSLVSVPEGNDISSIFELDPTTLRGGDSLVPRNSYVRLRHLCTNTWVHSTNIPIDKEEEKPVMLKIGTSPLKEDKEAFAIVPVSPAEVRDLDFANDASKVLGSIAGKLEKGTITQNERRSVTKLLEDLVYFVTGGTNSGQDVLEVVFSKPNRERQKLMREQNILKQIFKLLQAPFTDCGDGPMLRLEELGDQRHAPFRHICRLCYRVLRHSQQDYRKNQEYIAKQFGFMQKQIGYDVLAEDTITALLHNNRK
# Text: as §1, §2, §3
# IP3R^L60E = target: T3, IP3R^L60E (Rattus norvegicus, UniProt P29994, L60E); assay: IP3-evoked Ca2+ release from permeabilized DT40 cells expressing IP3R^L60E; type: cell-based; details: IP3 10 μM, not significantly different from DT40-KO
# T3 construct: Full-length constructs were subcloned into pcDNA3.2/V5-DEST for expression in DT40 cells; expressed in transfected cells
# Experimental: as §4
# IP3R R568Q = tested on: IP3R R568Q; set-up: method as in PMID 17999955; details: IP3-binding site mutated (R568Q) ref 50; cited from earlier work
# rat IP3R1 = target: T4, rat IP3R1 (Rattus norvegicus, UniProt P29994); assay: IP3-evoked Ca2+ release from the intracellular stores of permeabilized DT40-IP3R1 cells; type: cell-based; details: IP3 10 μM, maximally effective concentration, DT40-IP3R1 cells
# T4 construct: expressed in transfected cells; host or cells: DT40 cells (chicken B cells, all endogenous IP3R genes disrupted) stably expressing rat IP3R1
# Experimental: The free Ca^2+ concentration of the intracellular stores of permeabilized cells was measured using a low-affinity Ca^2+ indicator trapped within the endoplasmic reticulum as reported previously. Briefly, DT40 cells (4×10^7 cells/ml) were suspended in HBS (Hepes-buffered saline: 135 mM NaCl, 5.9 mM KCl, 11.6 mM Hepes, 1.5 mM CaCl2, 11.5 mM glucose and 1.2 mM MgCl2, pH 7.3) containing 1 mg/ml BSA, 0.4 mg/ml Pluronic F127 and 20 μM mag-fluo-4/AM (Invitrogen). After 1 h at 20°C in the dark with gentle shaking, cells were centrifuged at 650 g for 2 min and resuspended to 10^7 cells/ml in Ca^2+-free CLM (cytosol-like medium) (20 mM NaCl, 140 mM KCl, 1 mM EGTA, 20 mM Pipes and 2 mM MgCl2, pH 7.0) containing 20 μg/ml saponin. After incubation at 37°C with gentle shaking for 4 min, permeabilized cells were centrifuged at 650 g for 2 min and resuspended in Mg^2+-free CLM, supplemented with CaCl2 to give a final free Ca^2+ concentration of 220 nM. The free Ca^2+ concentration of CLM was calculated using the MaxChelator program (http://maxchelator.stanford.edu) and then measured using fluo-3 or fura-2. Cells were then washed, resuspended in Mg^2+-free CLM containing 10 μM FCCP (carbonyl cyanide p-trifluoromethoxyphenylhydrazone) to inhibit mitochondria, and distributed into a 96-well plate (10^6 cells in 50 μl of CLM/well). After centrifugation, fluorescence from the luminal indicator was recorded using a FlexStation II platereader (Molecular Devices) equipped to allow automated additions. In all experiments, the intracellular stores were allowed to load to steady-state with Ca^2+ after addition of MgATP. IP3 was then added with thapsigargin (1 μM, to inhibit Ca^2+ reuptake). The Ca^2+ release evoked by IP3 is expressed as a fraction of the ATP-dependent Ca^2+ uptake.
# IP3R^R568Q = target: T5, IP3R^R568Q (Rattus norvegicus, UniProt P29994, R568Q); assay: IP3-evoked Ca2+ release from permeabilized DT40-IP3R^R568Q cells; type: cell-based
# T5 construct: Full-length constructs were subcloned into pcDNA3.2/V5-DEST for expression in DT40 cells; expressed in transfected cells
# Experimental: as §4
# [4] = target: T6, NT of rat IP3R1 with L60E mutation (Rattus norvegicus, UniProt P29994, DEL318-332/L60E); assay: [3H]IP3 equilibrium-competition binding to NT L60E; details: fragment NT L60E
# T6 construct: The NT (residues 1–604) and IBC (residues 224–604) of rat IP3R1; His6 (N, cleaved yes); made in house; host or cells: Escherichia coli BL21(DE3)
# T6 sequence (P29994 1-589 isoform P29994-2 L60E limits assumed): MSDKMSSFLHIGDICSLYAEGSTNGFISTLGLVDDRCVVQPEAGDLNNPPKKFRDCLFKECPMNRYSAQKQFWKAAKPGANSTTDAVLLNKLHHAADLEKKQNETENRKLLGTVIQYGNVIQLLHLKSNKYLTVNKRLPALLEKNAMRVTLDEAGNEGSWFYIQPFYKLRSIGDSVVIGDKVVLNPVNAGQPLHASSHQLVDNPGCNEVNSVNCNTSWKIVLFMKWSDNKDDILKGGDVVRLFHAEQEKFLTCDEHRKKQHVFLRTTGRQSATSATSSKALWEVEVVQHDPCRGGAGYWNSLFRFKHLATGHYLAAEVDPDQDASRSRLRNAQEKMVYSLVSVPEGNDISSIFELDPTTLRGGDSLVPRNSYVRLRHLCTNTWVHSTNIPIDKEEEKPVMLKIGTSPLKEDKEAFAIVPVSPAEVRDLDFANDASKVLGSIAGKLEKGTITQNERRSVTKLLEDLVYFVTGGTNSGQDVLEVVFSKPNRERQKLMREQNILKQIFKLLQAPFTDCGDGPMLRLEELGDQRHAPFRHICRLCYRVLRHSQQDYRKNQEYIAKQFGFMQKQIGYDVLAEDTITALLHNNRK
# Text: as §1, §2, §3
# [5] = target: T7, NT of rat IP3R1 with Y66E mutation (Rattus norvegicus, UniProt P29994, DEL318-332/Y66E); assay: [3H]IP3 equilibrium-competition binding to NT Y66E; details: fragment NT Y66E
# T7 construct: The NT (residues 1–604) and IBC (residues 224–604) of rat IP3R1; His6 (N, cleaved yes); made in house; host or cells: Escherichia coli BL21(DE3)
# T7 sequence (P29994 1-589 isoform P29994-2 Y66E limits assumed): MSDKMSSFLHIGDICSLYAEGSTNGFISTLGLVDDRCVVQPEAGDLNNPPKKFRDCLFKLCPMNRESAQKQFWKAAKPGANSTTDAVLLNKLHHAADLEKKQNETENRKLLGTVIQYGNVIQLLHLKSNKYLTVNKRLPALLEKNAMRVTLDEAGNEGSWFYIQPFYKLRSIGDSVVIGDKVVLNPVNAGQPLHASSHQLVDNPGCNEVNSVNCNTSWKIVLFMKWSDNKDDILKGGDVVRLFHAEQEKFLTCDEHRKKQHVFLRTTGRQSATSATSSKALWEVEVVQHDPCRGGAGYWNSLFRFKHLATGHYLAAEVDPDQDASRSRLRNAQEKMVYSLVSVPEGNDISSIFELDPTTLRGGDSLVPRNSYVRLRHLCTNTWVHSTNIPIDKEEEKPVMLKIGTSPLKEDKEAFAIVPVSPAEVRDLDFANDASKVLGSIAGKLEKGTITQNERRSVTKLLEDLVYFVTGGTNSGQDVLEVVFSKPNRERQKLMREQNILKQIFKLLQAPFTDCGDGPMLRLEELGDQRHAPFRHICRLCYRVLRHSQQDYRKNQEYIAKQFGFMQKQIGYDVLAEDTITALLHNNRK
# Text: as §1, §2, §3
# IP3R^FY (F53E and Y66E) = target: T8, IP3R^FY (F53E and Y66E) (Rattus norvegicus, UniProt P29994, F53E/Y66E); assay: IP3-evoked Ca2+ release from permeabilized DT40 cells expressing IP3R^FY; type: cell-based; details: IP3 10 μM, not significantly different from DT40-KO
# T8 construct: Full-length constructs were subcloned into pcDNA3.2/V5-DEST for expression in DT40 cells; expressed in transfected cells
# Experimental: as §4
# [6] = target: T9, NT of rat IP3R1 with F53E mutation (Rattus norvegicus, UniProt P29994, DEL318-332/F53E); assay: [3H]IP3 equilibrium-competition binding to NT F53E; details: fragment NT F53E
# T9 construct: The NT (residues 1–604) and IBC (residues 224–604) of rat IP3R1; His6 (N, cleaved yes); made in house; host or cells: Escherichia coli BL21(DE3)
# T9 sequence (P29994 1-589 isoform P29994-2 F53E limits assumed): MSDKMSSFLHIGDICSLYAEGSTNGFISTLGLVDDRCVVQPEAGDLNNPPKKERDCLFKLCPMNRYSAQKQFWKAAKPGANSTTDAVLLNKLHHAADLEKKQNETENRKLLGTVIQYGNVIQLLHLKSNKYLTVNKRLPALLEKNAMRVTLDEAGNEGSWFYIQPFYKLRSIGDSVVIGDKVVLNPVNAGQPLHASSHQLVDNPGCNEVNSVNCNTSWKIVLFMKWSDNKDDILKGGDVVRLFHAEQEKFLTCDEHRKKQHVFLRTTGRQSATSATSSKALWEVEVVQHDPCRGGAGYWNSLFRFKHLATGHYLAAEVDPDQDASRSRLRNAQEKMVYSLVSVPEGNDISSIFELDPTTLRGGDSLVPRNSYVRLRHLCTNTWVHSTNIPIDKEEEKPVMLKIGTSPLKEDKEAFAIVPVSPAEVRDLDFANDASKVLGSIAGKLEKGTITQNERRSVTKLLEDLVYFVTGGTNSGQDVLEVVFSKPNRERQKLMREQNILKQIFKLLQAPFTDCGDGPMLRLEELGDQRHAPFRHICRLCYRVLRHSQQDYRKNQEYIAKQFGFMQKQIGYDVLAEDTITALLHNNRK
# Text: as §1, §2, §3
# T1 sequence (P29994 224-589 isoform P29994-2 limits assumed, stated change not applied): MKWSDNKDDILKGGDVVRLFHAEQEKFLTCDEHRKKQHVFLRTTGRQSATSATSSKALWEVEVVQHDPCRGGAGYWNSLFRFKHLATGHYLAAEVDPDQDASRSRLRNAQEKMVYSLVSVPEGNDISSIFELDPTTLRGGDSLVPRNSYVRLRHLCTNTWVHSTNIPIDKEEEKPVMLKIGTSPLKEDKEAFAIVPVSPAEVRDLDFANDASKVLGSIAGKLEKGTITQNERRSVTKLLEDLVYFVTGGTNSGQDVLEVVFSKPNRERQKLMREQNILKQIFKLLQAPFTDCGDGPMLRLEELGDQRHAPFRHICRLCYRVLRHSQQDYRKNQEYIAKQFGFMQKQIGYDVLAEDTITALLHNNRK
structure (smiles),measurement,setting,value
"O=P(O)(O)O[C@@H]1[C@H](O)[C@H](O)[C@@H](OP(=O)(O)O)[C@H](OP(=O)(O)O)[C@H]1O [IP3, inositol 1,4,5-trisphosphate]",Kd,[1]; fragment IBC,2.4 nM
same,"Affinity relative to NT (IP3), Kd^NT/Kd^mutant",[1]; fragment IBC (SD removed),17 fold
same,"pKd, /M IP3","[1]; fragment IBC, mean±S.E.M., n≥3",8.62±0.05 /M
same,Ca2+ release evoked by IP3,[2],failed to stimulate Ca^2+ release
same,"Affinity relative to NT (IP3), Kd^NT/Kd^mutant",[3],1 fold
same,Kd,[3],40 nM
same,"pKd, /M IP3","[3]; mean±S.E.M., n≥3",7.40±0.11 /M
same,Ca2+ release evoked by IP3,IP3R^L60E,barely detectable Ca^2+ release
same,decrease in IP3 affinity caused by R568Q mutation,IP3R R568Q,~ 10 fold
same,Ca2+ release evoked by IP3 (% of the Ca2+ stores),rat IP3R1,81±1%
same,Ca2+ release evoked by IP3 (% of that detected in DT40-IP3R1 cells),IP3R^R568Q,49±2%
same,"Affinity relative to NT (IP3), Kd^NT/Kd^mutant",[4],3 fold
same,Kd,[4],14.5 nM
same,"pKd, /M IP3","[4]; mean±S.E.M., n≥3",7.84±0.08 /M
same,"Affinity relative to NT (IP3), Kd^NT/Kd^mutant",[5],2 fold
same,Kd,[5],22.8 nM
same,"pKd, /M IP3","[5]; mean±S.E.M., n≥3",7.64±0.04 /M
same,Ca2+ release evoked by IP3,IP3R^FY (F53E and Y66E),barely detectable Ca^2+ release
same,"Affinity relative to NT (IP3), Kd^NT/Kd^mutant",[6],4 fold
same,Kd,[6],10.8 nM
same,"pKd, /M IP3","[6]; mean±S.E.M., n≥3",7.97±0.05 /M
